Test results reported in patent publication US5428182A, “Bile acid derivatives, process for their preparation and use of these compounds as pharmaceuticals” (Hoechst Aktiengesellschaft, priority 1992, dated 1995).

Target: T1, Na^+ -dependent bile acid transport system (Oryctolagus cuniculus, UniProt Q28727)
T1 construct: Brush border membrane vesicles from the intestinal cells of the small intestine were prepared by the so-called Mg^2+ precipitation method; from tissue; host or cells: terminal ileum (terminal 7/10 of small intestine) of male New Zealand rabbits, brush border membrane vesicles
T1 sequence (Q28727 1-347): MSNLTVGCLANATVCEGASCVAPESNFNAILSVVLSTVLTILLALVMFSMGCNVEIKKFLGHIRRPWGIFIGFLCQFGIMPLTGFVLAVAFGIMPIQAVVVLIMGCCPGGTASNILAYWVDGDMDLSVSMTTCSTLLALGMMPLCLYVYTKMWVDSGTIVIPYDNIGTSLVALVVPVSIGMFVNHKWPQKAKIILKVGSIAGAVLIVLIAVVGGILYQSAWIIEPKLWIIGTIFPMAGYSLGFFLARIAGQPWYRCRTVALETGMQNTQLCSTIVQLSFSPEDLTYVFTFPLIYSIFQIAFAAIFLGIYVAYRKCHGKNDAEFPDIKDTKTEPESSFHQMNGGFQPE
Assay: inhibition of Na+-dependent [3H]-taurocholate absorption in brush border membrane vesicles of rabbit ileum (membrane filtration technique)
Format: biochemical
Conditions: 50 μM taurocholate, customarily 1 minute, pH 7.4; for IC50Na (TCDC) / IC50Na (Substance): quotient of IC50Na of the standard TCDC and of the substance, Na+-dependent transport (difference Na-T-B minus K-T-B); for IC50 (TCDC) / IC50 (Substance): quotient of IC50 of the standard taurochenodeoxycholate (TCDC) and of the substance
Protocol: The biological testing of the compounds according to the invention was carried out by determining the inhibition of [^3 H]-taurocholate absorption in brush border membrane vesicles of the rabbit ileum. The inhibition test was carried out as follows:
Brush border membrane vesicles from the intestinal cells of the small intestine were prepared by the so-called Mg^2+ precipitation method. Male New Zealand rabbits (2 to 2.5 kg body weight) were sacrificed by intravenous injection of 0.5 ml of an aqueous solution of 2.5 mg of tetracaine HCl, 100 T 61® and 25 mg of mebezonium iodide. The small intestine was removed and rinsed with ice-cold physiological saline solution. The terminal 7/10 of the small intestine (measured in the oral-rectal direction, i.e. the terminal ileum, which contains the active Na^+ -dependent bile acid transport system) were used for the preparation of the brush border membrane vesicles. The intestines were frozen under nitrogen at -80° C. in plastic bags. For the preparation of the membrane vesicles, the frozen intestines were thawed at 30° C. in a water bath. The mucosa was scraped off and suspended in 60 ml of ice-cold 12 mM tris/HCl buffer (pH 7.1)/300 mM mannitol, 5 mM EGTA/ 10 mg/l of phenylmethylsulfonyl fluoride/l mg/l of trypsin inhibitor from soybeans (32 U/mg)/0.5 mg/l of trypsin inhibitor from bovine lung (193 U/mg)/5 mg/l of bacitracin. After dilution to 300 ml with ice-cold distilled water, the suspension was homogenized using an Ultraturrax (18-rod, IKAWerk Staufen, FRG) for 3 minutes at 75% maximum power with ice-cooling. After addition of 3 ml of 1M MgCl2 solution (final concentration 10 mM), the homogenate was allowed to stand at 0° C. for exactly 1 minute. As a result of addition of Mg^2+, the cell membranes aggregate and precipitate with the exception of the brush border membranes. After centrifugation at 3000×g for 15 minutes (5000 rpm, SS-34 rotor), the precipitate is discarded and the supernatant which contains the brush border membranes is centrifuged at […] for 30 minutes (15,000 rpm, SS-34 rotor). The supernatant was discarded and the precipitate was rehomogenized in 60 ml of 12 mM tris/HCl buffer (pH 7.1)/60 mM mannitol/5 mM EGTA using a Potter Elvejhem homogenizer (Braun Melsungen, 900 rpm, 10 strokes). After addition of 0.1 ml of 1M MgCl2 solution and an incubation time of 15 minutes at 0° C., centrifugation was once more carried out at 3000×g for 15 minutes. The supernatant was then centrifuged again at 46,000×g (15,000 rpm, SS-34 rotor) for 30 minutes. The precipitate was taken up in 30 ml of 10 mM tris/hepes buffer (pH 7.4)/300 mM mannitol and homogeneously resuspended at 1000 rpm by 20 strokes in a Potter Elvejhem homogenizer. After centrifugation at 48,000×g (20,000 rpm, SS-34 rotor) for 30 minutes, the precipitate was taken up in 0.5 to 2 ml of tris/HEPES buffer (pH 7.4)/280mM mannitol (final concentration 20 mg/ml) and resuspended with the aid of a tuberculin syringe having a 27 gauge needle. The vesicles were either used immediately after preparation for transport investigations or stored in liquid nitrogen at -196° C. in 4 mg portions.
The absorption of substrates in the brush border membrane vesicles described above was determined by means of the so-called membrane filtration technique. 10 μl of the vesicle suspension (100 μg of protein) were pipetted as drops onto the wall of a polystyrene incubation tube (11×70 mm) which contained the incubation medium with the appropriate ligands (90 μl). The incubation medium contained 0.75 μl=0.75 μCi of [^3 H(G)]-taurocholate (specific activity: 2.1 Ci/mMol)/0.5 μl of 10 mM taurocholate/8.75 μl of sodium transport buffer (10 mM tris/HEPES (pH 7.4)/100 mM mannitol/100 mM NaCl) (Na-T-B) or 8.75 μl of potassium transport buffer (10 mM tris/hepes (pH 7.4)/100 mM mannitol/100 mM KCl) (K-T-B) and 80 μl of the inhibitor solution concerned, depending on the experiment, dissolved in Na-T buffer or K-T buffer. […]

Structure (SMILES) | IC50Na (TCDC) / IC50Na (Substance) | IC50 (TCDC) / IC50 (Substance)
C[C@H](CCC(=O)O)[C@H]1CC[C@H]2[C@@H]3[C@H](O)C[C@@H]4C[C@@H](OCCNC(=O)CCC(CCC(=O)NCCO[C@H]5CC[C@@]6(C)[C@@H](C5)C[C@@H](O)[C@@H]5[C@@H]6C[C@H](O)[C@]6(C)[C@@H]([C@H](C)CCC(=O)O)CC[C@@H]56)(CCC(=O)NCCO[C@H]5CC[C@@]6(C)[C@@H](C5)C[C@@H](O)[C@@H]5[C@@H]6C[C@H](O)[C@]6(C)[C@@H]([C@H](C)CCC(=O)O)CC[C@@H]56)[N+](=O)[O-])CC[C@]4(C)[C@H]3C[C@H](O)[C@]12C [Example 7] | 0.34 | 0.29
C[C@H](CCC(=O)O)[C@H]1CC[C@H]2[C@@H]3[C@H](O)C[C@@H]4C[C@@H](OCCNC(=O)CCOCC(C)(COCCC(=O)NCCO[C@H]5CC[C@@]6(C)[C@@H](C5)C[C@@H](O)[C@@H]5[C@@H]6C[C@H](O)[C@]6(C)[C@@H]([C@H](C)CCC(=O)O)CC[C@@H]56)COCCC(=O)NCCO[C@H]5CC[C@@]6(C)[C@@H](C5)C[C@@H](O)[C@@H]5[C@@H]6C[C@H](O)[C@]6(C)[C@@H]([C@H](C)CCC(=O)O)CC[C@@H]56)CC[C@]4(C)[C@H]3C[C@H](O)[C@]12C [Example 10] | 0.26 | 0.24
C[C@H](CCC(=O)O)[C@H]1CC[C@H]2[C@@H]3[C@H](O)C[C@@H]4C[C@@H](NC(=O)CCOCCCOCC(C)(COCCCOCCC(=O)N[C@H]5CC[C@@]6(C)[C@@H](C5)C[C@@H](O)[C@@H]5[C@@H]6C[C@H](O)[C@]6(C)[C@@H]([C@H](C)CCC(=O)O)CC[C@@H]56)COCCCOCCC(=O)N[C@H]5CC[C@@]6(C)[C@@H](C5)C[C@@H](O)[C@@H]5[C@@H]6C[C@H](O)[C@]6(C)[C@@H]([C@H](C)CCC(=O)O)CC[C@@H]56)CC[C@]4(C)[C@H]3C[C@H](O)[C@]12C [Example 11] | 0.36 | 0.29
C[C@H](CCC(=O)O)[C@H]1CC[C@H]2[C@@H]3[C@H](O)C[C@@H]4C[C@@H](OCCCCCCNC(=O)[C@]5(C)C[C@](C)(C(=O)NCCCCCCO[C@H]6CC[C@@]7(C)[C@@H](C6)C[C@@H](O)[C@@H]6[C@@H]7C[C@H](O)[C@]7(C)[C@@H]([C@H](C)CCC(=O)O)CC[C@@H]67)C[C@](C)(C(=O)NCCCCCCO[C@H]6CC[C@@]7(C)[C@@H](C6)C[C@@H](O)[C@@H]6[C@@H]7C[C@H](O)[C@]7(C)[C@@H]([C@H](C)CCC(=O)O)CC[C@@H]67)C5)CC[C@]4(C)[C@H]3C[C@H](O)[C@]12C [Example 16] | 0.31 | 0.37
C[C@H](CCC(=O)O)[C@H]1CC[C@H]2[C@@H]3[C@H](O)C[C@@H]4C[C@H](CCNC(=O)c5cc(C(=O)NCC[C@@H]6CC[C@@]7(C)[C@@H](C6)C[C@@H](O)[C@@H]6[C@@H]7C[C@H](O)[C@]7(C)[C@@H]([C@H](C)CCC(=O)O)CC[C@@H]67)cc(C(=O)NCC[C@@H]6CC[C@@]7(C)[C@@H](C6)C[C@@H](O)[C@@H]6[C@@H]7C[C@H](O)[C@]7(C)[C@@H]([C@H](C)CCC(=O)O)CC[C@@H]67)c5)CC[C@]4(C)[C@H]3C[C@H](O)[C@]12C [Example 18] | 0.76 | 0.85
C[C@H](CCC(=O)O)[C@H]1CC[C@H]2[C@@H]3[C@H](O)C[C@@H]4C[C@@H](OCCCCCNC(=O)c5cc(C(=O)NCCCCCO[C@H]6CC[C@@]7(C)[C@@H](C6)C[C@@H](O)[C@@H]6[C@@H]7C[C@H](O)[C@]7(C)[C@@H]([C@H](C)CCC(=O)O)CC[C@@H]67)cc(C(=O)NCCCCCO[C@H]6CC[C@@]7(C)[C@@H](C6)C[C@@H](O)[C@@H]6[C@@H]7C[C@H](O)[C@]7(C)[C@@H]([C@H](C)CCC(=O)O)CC[C@@H]67)c5)CC[C@]4(C)[C@H]3C[C@H](O)[C@]12C [Example 20] | 0.86 | 0.43
C[C@H](CCC(=O)O)[C@H]1CC[C@H]2[C@@H]3[C@H](O)C[C@@H]4C[C@@H](OCCCCCCNC(=O)c5cc(C(=O)NCCCCCCO[C@H]6CC[C@@]7(C)[C@@H](C6)C[C@@H](O)[C@@H]6[C@@H]7C[C@H](O)[C@]7(C)[C@@H]([C@H](C)CCC(=O)O)CC[C@@H]67)cc(C(=O)NCCCCCCO[C@H]6CC[C@@]7(C)[C@@H](C6)C[C@@H](O)[C@@H]6[C@@H]7C[C@H](O)[C@]7(C)[C@@H]([C@H](C)CCC(=O)O)CC[C@@H]67)c5)CC[C@]4(C)[C@H]3C[C@H](O)[C@]12C [Example 21] | 0.59 | 0.29
C[C@H](CCC(=O)O)[C@H]1CC[C@H]2[C@@H]3[C@H](O)C[C@@H]4C[C@@H](OCCCCCNC(=O)[C@]5(C)C[C@](C)(C(=O)NCCCCCO[C@H]6CC[C@@]7(C)[C@@H](C6)C[C@@H](O)[C@@H]6[C@@H]7C[C@H](O)[C@]7(C)[C@@H]([C@H](C)CCC(=O)O)CC[C@@H]67)C[C@](C)(C(=O)NCCCCCO[C@H]6CC[C@@]7(C)[C@@H](C6)C[C@@H](O)[C@@H]6[C@@H]7C[C@H](O)[C@]7(C)[C@@H]([C@H](C)CCC(=O)O)CC[C@@H]67)C5)CC[C@]4(C)[C@H]3C[C@H](O)[C@]12C [Example 31] | 0.93 | 1.26
C[C@H](CCC(=O)O)[C@H]1CC[C@H]2[C@@H]3[C@H](O)C[C@@H]4C[C@@H](NC(=O)[C@]5(C)C[C@](C)(C(=O)N[C@H]6CC[C@@]7(C)[C@@H](C6)C[C@@H](O)[C@@H]6[C@@H]7C[C@H](O)[C@]7(C)[C@@H]([C@H](C)CCC(=O)O)CC[C@@H]67)C[C@](C)(C(=O)N[C@H]6CC[C@@]7(C)[C@@H](C6)C[C@@H](O)[C@@H]6[C@@H]7C[C@H](O)[C@]7(C)[C@@H]([C@H](C)CCC(=O)O)CC[C@@H]67)C5)CC[C@]4(C)[C@H]3C[C@H](O)[C@]12C [Example 33] | 1.04 | 0.77
CC(CCC(=O)O)C1CCC2C3C(O)CC4CC(OCCNC(=O)C5C(C(=O)NCCOC6CCC7(C)C(C6)CC(O)C6C7CC(O)C7(C)C(C(C)CCC(=O)O)CCC67)C(c6ccccc6)C5C(=O)NCCOC5CCC6(C)C(C5)CC(O)C5C6CC(O)C6(C)C(C(C)CCC(=O)O)CCC56)CCC4(C)C3CC(O)C12C (stereo not shown) [Example 45] | 0.23 | 0.32
CC(CCC(=O)O)C1CCC2C3C(O)CC4CC(OCCNC(=O)C5C(C(=O)NCCOC6CCC7(C)C(C6)CC(O)C6C7CC(O)C7(C)C(C(C)CCC(=O)O)CCC67)C(C(=O)NCCOC6CCC7(C)C(C6)CC(O)C6C7CC(O)C7(C)C(C(C)CCC(=O)O)CCC67)C5C(=O)NCCOC5CCC6(C)C(C5)CC(O)C5C6CC(O)C6(C)C(C(C)CCC(=O)O)CCC56)CCC4(C)C3CC(O)C12C (stereo not shown) [Example 47] | 0.23 | 0.24
